Data published in patent publication US7977364B2, “Indazoles, benzisoxazoles and benzisothiazoles and their use as estrogenic agents” (Laboratoire Thermamex, priority 2004, dated 2011).

What was measured:
[1] = test system: rats; experiment: Forced swimming test (antidepressant activity, immobility duration); format: in vivo, rat
Text: Antidepressant effect of estradiol was recently reported in studies using ER β KO mice model. In addition, ER β localization in dorsal raphe nucleus area in rat has been described. The gold standard test for antidepressant potency of compound consist in the forced swimming test, in this experiment antidepressants could be distinguished from psychostimulants which decreased immobility at doses which increased general activity. In order to investigate the putative antidepressant potency of the compounds reported here, the forced swimming test was performed according to the following design. The animals were housed six per cage under standard colony conditions, with a 12 h light/dark cycle and ad libitum food and water. They were allowed to acclimatize to the colony for at least 7 days prior to any experimentation. For subcutaneous administration, the compound of Example 23 was dissolved in olive oil and diluted to the desired concentration on the day of administration. For positive control, intraperitoneal (i.p.) injection of desipramine was done. Desipramine was dissolved in double-distilled water (10 mg/kg). The experiments were conducted 30 min after the positive control drug treatment (only for desipramine treatment). Other compounds, ie: estradiol and the compound of Example 23 were daily injected subcutaneously in rats, during a 7 days period. Acquisition were performed on day 8 (24 h after the last administration of items) and day 9 (48 h after estradiol or compound 23 administration), respectively. Data acquired 24 hours after the last administration consisted in the “naïve animal group”, these animals had never been previously tested in the device. Data acquired 48 hours after a last administration of compounds consisted in “trained animal group”.
On the 8th, the forced swim test was performed. This study was carried out in rats according to the methods described by Porsolt (Eur. J. Pharm., 1978). Briefly, rats were placed individually in glass cylinders (height: 40 cm, diameter: 18 cm) containing 25 cm of water at 25° C. Ten minutes later, rats were removed and dried before being returned to their home cages. The animals were replaced in the cylinders 24 h later, and the procedure was repeated, and a 10-min observation period was recorded.

[2] = test system: ovariectomized rats; conditions: rat, in vivo
[3] = target: T1, purified full-length recombinant human ERα (Homo sapiens, UniProt P03372); experiment: Estrogen receptor α competitive radiometric binding assay ([3H]-E2)
T1 sequence (P03372 1-595): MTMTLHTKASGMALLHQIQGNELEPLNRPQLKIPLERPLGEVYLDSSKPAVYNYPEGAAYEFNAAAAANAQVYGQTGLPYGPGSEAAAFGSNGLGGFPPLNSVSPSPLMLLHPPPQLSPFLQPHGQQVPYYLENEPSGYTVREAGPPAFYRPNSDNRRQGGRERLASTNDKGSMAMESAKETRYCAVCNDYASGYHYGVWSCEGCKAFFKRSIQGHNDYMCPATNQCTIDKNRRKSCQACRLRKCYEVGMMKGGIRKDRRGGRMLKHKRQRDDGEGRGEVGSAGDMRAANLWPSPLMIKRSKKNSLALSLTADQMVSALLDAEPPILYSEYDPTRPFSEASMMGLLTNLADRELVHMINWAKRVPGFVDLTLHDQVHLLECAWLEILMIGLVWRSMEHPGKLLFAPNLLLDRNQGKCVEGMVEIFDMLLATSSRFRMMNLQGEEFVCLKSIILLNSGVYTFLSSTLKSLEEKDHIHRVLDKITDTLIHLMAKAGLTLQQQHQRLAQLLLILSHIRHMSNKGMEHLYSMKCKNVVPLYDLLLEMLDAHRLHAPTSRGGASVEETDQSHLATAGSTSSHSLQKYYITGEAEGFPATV
Protocol: Relative binding affinities (RBA) were determined by competitive radiometric binding assays, using purified full-length recombinant human ERα and ERβ (PanVera, Madison, Wis.). […] After shaking for a few seconds and centrifugation at 1500 g and 4° C. for 10 minutes, 150 μl/well of Optiphase ‘Super Mix’ scintillation liquid was mixed with 50 μl of supernatant of each sample and the radioactivity was measured in a MicroBeta counter (Wallac, Turku, Finland). Data were evaluated by a sigmoidal dose-response curve (Prism, GraphPad Software Inc.) to estimate the concentration of competitor at half-maximal specific binding (IC50). […] The selectivity for ERα and ERβ was obtained from the ratio R of the IC50 for ERα to the IC50 for ERβ for each test compound.

## Oc1ccc2c(C3CCCC3)n[nH]c2c1 [Ex 23, 3-cyclopentyl-1H-indazol-6-ol]
[1]; 2.8 mg/rat/day s.c. 7 days, 24 h after last administration, 10 minutes test
  immobility duration, Naïve animals: 45.2 ± 15.6 s
[1]; 2.8 mg/rat/day s.c. 7 days, 48 h after last administration, 10 minutes test
  immobility duration, Trained animals: 160.7 ± 44.1 s
[1]; 24 h after administration, in words
  antidepressor activity, animals first-in-the-test: exhibited a antidepressor activity
[1]; 48 h after administration, in words
  antidepressor potency, trained animal group: disappeared
[2]
  side-effects on uteri: without deleterious side-effects on uteri
[3]
  IC50: 1330 ± 268 nM
[3]; ratio of IC50s of E2 and competitor, E2 set at 100%
  RBA (%) Mean ± S.E.M, ER α: 0.2 ± 0.05%
